The record followed here is ChEMBL document CHEMBL5230082, “Recent advances in steroid amino acid conjugates: Old scaffolds with new dimensions” (Eur J Med Chem, 2020).

The nature of assay [1]: Inhibition of Sialyltransferase (unknown origin). More on the design: species or system Homo sapiens.
Assay [2] is described as follows: Cytotoxicity against human A2780cis cells assessed as reduction in cell viability incubated for 72 hrs. Format: functional, cell-based.
In another assay the test system is MDA-MB-231. Kind of assay: Anticancer activity against human MDA-MB-231 cells assessed as growth inhibition. Format: functional.
The next assay has as its system HeLa. The assay is described as follows: Cytotoxicity against human HeLa cells assessed as reduction in cell viability. The format is functional, cell-based.
The test system of assay [3] is Rattus norvegicus. The assay is described as follows: Antiarrhythmic activity in pentobarbital anesthetized rat model assessed as ventricular fibrillation at 10 mg/kg, iv relative to control. The format is functional.
The test system of assay [4] is Rattus norvegicus. The assay is described as follows: Antiarrhythmic activity in pentobarbital anesthetized rat model assessed as death rate at 10 mg/kg, iv relative to control. Format: functional.
Assay [5] deals with Rattus norvegicus. Kind of assay: Antiarrhythmic activity in pentobarbital anesthetized rat model assessed as number of ventricular ectopics at 10 mg/kg, iv. Format: functional.
Assay [6] deals with Human immunodeficiency virus type 1 protease (Human immunodeficiency virus 1, UniProt Q72874). The assay is described as follows: Inhibition of HIV-1 protease assessed as inhibition.
Assay [7] can be described thus: Anticancer activity against human U-87 MG cells assessed as growth inhibition. Format: functional, U-87MG ATCC.
Assay [8] relates to Candida albicans. Kind of assay: Antifungal activity against Candida albicans assessed as fungal growth inhibition per disk. Format: functional.
In the next assay the test system is Globisporangium ultimum. Kind of assay: Antifungal activity against Globisporangium ultimum assessed as fungal growth inhibition per disk. Format: functional.
For assay [9], the system named is Cladosporium cucumerinum. Kind of assay: Antifungal activity against Cladosporium cucumerinum assessed as zone of inhibition at 30 ug per disc. Format: functional. The following applies: read-out: DIZ.
Assay [10] deals with Cladosporium cucumerinum. Kind of assay: Antifungal activity against Cladosporium cucumerinum assessed as zone of inhibition at 60 ug per disc. The format is functional. The following applies: read-out: DIZ.
The test system of assay [11] is Staphylococcus aureus. The assay is described as follows: Antibacterial activity against Staphylococcus aureus assessed as bacterial growth inhibition per disk. The format is functional.
In a further assay the test system is SH-SY5Y. The assay is described as follows: Neuroprotective activity against H2O2-induced human SH-SY5Y cell injury by MTT assay relative to control. The format is functional. (In general: Tetrazolium assays rely on reduction of a dye to a coloured formazan, in cell work by metabolically active cells.)
The target in assay [12] is Ephrin type-A receptor 2/Ephrin-A1 (Homo sapiens, UniProt P20827+P29317). The assay is described as follows: Inhibition of EPhA2-ephrin-A1 (unknown origin) protein-protein interaction. Format: protein assay.
Ephrin type-A receptor 2/Ephrin-A1, sequence (P29317 whole entry): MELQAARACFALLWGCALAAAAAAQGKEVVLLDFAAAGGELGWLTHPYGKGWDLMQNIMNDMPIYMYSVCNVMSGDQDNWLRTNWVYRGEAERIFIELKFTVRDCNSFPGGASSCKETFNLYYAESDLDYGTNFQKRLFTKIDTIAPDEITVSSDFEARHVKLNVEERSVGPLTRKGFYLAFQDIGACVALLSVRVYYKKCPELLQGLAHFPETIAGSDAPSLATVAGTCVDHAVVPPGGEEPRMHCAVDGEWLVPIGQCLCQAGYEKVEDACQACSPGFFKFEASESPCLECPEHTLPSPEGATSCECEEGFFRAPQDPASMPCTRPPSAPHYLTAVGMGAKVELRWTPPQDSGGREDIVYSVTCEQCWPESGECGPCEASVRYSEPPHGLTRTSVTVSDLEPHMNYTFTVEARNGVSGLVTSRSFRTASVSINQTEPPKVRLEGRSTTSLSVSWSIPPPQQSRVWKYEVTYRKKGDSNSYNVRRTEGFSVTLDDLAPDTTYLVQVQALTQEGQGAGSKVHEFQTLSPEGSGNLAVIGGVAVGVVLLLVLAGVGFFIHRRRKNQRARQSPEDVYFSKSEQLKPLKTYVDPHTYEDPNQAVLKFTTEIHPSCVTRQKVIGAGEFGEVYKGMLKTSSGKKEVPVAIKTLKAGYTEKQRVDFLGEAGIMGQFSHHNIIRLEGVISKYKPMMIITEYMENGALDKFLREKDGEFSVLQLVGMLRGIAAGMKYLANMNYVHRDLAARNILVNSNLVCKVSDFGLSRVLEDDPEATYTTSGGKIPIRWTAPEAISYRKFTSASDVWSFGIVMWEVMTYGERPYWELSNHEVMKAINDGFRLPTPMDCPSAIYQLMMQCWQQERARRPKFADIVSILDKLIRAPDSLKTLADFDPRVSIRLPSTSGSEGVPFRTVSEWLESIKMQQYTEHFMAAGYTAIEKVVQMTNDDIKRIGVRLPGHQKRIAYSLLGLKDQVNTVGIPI
Ephrin type-A receptor 2/Ephrin-A1, sequence (P20827 whole entry): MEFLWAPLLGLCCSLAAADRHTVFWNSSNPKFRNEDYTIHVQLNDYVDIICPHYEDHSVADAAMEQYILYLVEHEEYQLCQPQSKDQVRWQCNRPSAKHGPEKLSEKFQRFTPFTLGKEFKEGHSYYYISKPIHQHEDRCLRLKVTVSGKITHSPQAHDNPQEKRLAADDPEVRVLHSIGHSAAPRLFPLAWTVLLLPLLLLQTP
For a further assay, the system named is Escherichia coli. The assay is described as follows: Antibacterial activity against Escherichia coli. The format is functional.
The test system of a further assay is Klebsiella pneumoniae. Kind of assay: Antibacterial activity against Klebsiella pneumoniae. Format: functional.
The subject of a further assay is Acinetobacter baumannii. The assay is described as follows: Antibacterial activity against Acinetobacter baumannii. Format: functional.
Another assay relates to Streptococcus oralis. The assay is described as follows: Antibacterial activity against Streptococcus oralis. Format: functional.
The subject of another assay is Shigella flexneri. The assay is described as follows: Antibacterial activity against Shigella flexneri. Format: functional.
For assay [13], the system named is Staphylococcus aureus. Kind of assay: Antibacterial activity against Staphylococcus aureus. Format: functional.
The next assay concerns Pseudomonas aeruginosa. Kind of assay: Antibacterial activity against Pseudomonas aeruginosa. The format is functional.
A further assay relates to Bacillus subtilis. Kind of assay: Antibacterial activity against Bacillus subtilis. Format: functional.
A further assay deals with Salmonella typhimurium. The assay is described as follows: Antibacterial activity against Salmonella enterica subsp. enterica serovar Typhimurium. The format is functional.
The test system of another assay is Streptococcus pneumoniae. Kind of assay: Antibacterial activity against Streptococcus pneumoniae. Format: functional.
A further assay has as its target Integrin alpha-M/beta-2 (Homo sapiens, UniProt P05107+P11215). The assay is described as follows: Antagonist activity at integrin CD11B/CD18 (unknown origin). The format is protein-complex assay.
Assay [14] concerns Staphylococcus aureus. The assay is described as follows: Antibacterial activity against methicillin-resistant Staphylococcus aureus. The format is functional.
The subject of assay [15] is Candida albicans. Kind of assay: Antifungal activity against Candida albicans assessed as zone of inhibition at 100 ug per disc. The format is functional. Particulars: read-out: DIZ.

pIC50, pKi: −log10 of the molar value. Values after ≈ are worked out from the molar mass of the structure shown.

Integrin alpha-M/beta-2, sequence (P05107 23-769 limits assumed, other chains not shown): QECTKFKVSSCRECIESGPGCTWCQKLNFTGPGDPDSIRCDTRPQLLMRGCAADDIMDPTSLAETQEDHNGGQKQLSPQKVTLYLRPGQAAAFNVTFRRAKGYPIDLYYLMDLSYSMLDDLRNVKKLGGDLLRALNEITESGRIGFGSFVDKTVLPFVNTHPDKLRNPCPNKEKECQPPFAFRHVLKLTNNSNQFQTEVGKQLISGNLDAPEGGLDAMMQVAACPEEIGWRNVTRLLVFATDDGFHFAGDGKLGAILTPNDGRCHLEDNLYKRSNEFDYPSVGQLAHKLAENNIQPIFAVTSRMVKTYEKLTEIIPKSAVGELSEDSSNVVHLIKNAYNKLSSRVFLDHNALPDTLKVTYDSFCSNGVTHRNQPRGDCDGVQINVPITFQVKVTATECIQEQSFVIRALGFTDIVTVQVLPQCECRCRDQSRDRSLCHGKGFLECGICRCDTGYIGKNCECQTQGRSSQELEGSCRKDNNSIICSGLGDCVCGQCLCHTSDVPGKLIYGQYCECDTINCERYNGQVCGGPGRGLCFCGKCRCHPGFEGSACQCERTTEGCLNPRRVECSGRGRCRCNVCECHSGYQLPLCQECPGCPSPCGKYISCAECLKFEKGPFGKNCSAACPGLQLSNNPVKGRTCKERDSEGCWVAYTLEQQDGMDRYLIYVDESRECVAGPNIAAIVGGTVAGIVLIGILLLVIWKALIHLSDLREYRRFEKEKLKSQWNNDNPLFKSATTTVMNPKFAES

For the compound `CCCP(=O)(OCC)C(Cc1cn(CCC[C@@H](C)[C@H]2CC[C@H]3[C@@H]4CC[C@@H]5C[C@H](O)CC[C@]5(C)[C@H]4CC[C@]23C)nn1)C(=O)O` (stereo not given in full), the pIC50 (usually the IC50 on a negative log10 scale, so that one unit is a factor of ten) in [1] was 5.15.

Regarding `CC(C)CCC[C@@H](C)[C@H]1CC[C@H]2[C@@H]3CC=C4C[C@@H](OC(=O)N[C@H](Cc5ccc(O)cc5)C(=O)O)CC[C@]4(C)[C@H]3CC[C@]12C`, in assay [2], the pIC50 is 4.30.

In the case of `C[C@H](CCCn1cc(CCCC(=O)O)nn1)[C@H]1CC[C@H]2[C@@H]3CC[C@@H]4C[C@H](O)CC[C@]4(C)[C@H]3CC[C@]12C`, the pIC50 in assay [1] was 5.30.

For the compound `CC[C@H](C)[C@H](NC(=O)CC[C@@H](C)[C@H]1CC[C@H]2[C@@H]3[C@H](O)C[C@@H]4C[C@H](O)CC[C@]4(C)[C@H]3C[C@H](O)[C@]12C)C(=O)Nc1ccccc1`, the GI50 (commonly the concentration giving 50% growth inhibition) with MDA-MB-231 came to 1350 nM.

As to `CC(C)CCC[C@@H](C)[C@H]1CC[C@H]2[C@@H]3CC=C4C[C@@H](OC(=O)N[C@H](Cc5ccc(OP(=O)(O)O)cc5)C(=O)O)CC[C@]4(C)[C@H]3CC[C@]12C`, the pIC50 in the assay with HeLa is 4.80.

Consider `C[C@]12C[C@H](O)[C@@H](N)C[C@@H]1CC[C@@H]1[C@@H]2CC[C@]2(C)C(=O)CC[C@@H]12` [AMAFOLONE], for which the Activity stood at 13% in the assay on Rattus norvegicus [3], 0% in the assay on Rattus norvegicus [4] and 213 in the assay with Rattus norvegicus [5].

Regarding `C[C@H](CCC(=O)N[C@H](CC(=O)OCc1ccccc1)C(=O)O)[C@H]1CC[C@H]2[C@@H]3[C@H](O)C[C@@H]4C[C@H](O)CC[C@]4(C)[C@H]3C[C@H](O)[C@]12C`, the pIC50 in assay [6] was 3.90.

Turning to `CC(C)[C@H](NC(=O)CC[C@@H](C)[C@H]1CC[C@H]2[C@@H]3[C@H](O)C[C@@H]4C[C@H](O)CC[C@]4(C)[C@H]3C[C@H](O)[C@]12C)C(=O)Nc1ccncc1`, in [7], the GI50 was determined as 2460 nM.

In the case of `C=C(C(=O)N[C@H](C(=O)O)c1ccc(OC)cc1)C(C)CC[C@@H](C)[C@H]1CCC2=C3CC[C@H]4[C@H](C)[C@@H](OS(=O)(=O)O)CC[C@]4(C)[C@H]3CC[C@@]21C` (stereo not given in full), the figures for the MIC in the assay on Candida albicans [8], in the assay with Globisporangium ultimum and with Staphylococcus aureus [11] were 75 µg, 25 µg and 100 µg, respectively. The zone of inhibition at 30 µg/disc in the assay with Cladosporium cucumerinum [9] stood at 10.1 mm. Further, in the assay with Cladosporium cucumerinum [10], the zone of inhibition at 60 µg/disc was 8 mm.

In turn, `COC(=O)[C@H](Cc1ccccc1)NC(=O)[C@@H](C)CC[C@H]1O[C@H]2C[C@H]3[C@@H]4CC[C@@H]5C[C@@H](OC)CC[C@]5(C)[C@H]4CC[C@]3(C)[C@H]2[C@@H]1C` returned an Activity in the assay on SH-SY5Y of 102.2%.

Consider `C[C@H](CCC(=O)O)[C@H]1CC[C@H]2[C@@H]3CC[C@@H]4CCCC[C@]4(C)[C@H]3CC[C@]12C` [URSOCHOLANIC ACID], for which the pKi (as a rule, the Ki on a negative log10 scale, so that one unit is a factor of ten) in assay [12] was 5.29.

Turning to `C[C@H](CCC(=O)O)[C@H]1CC[C@H]2[C@@H]3CC[C@@H]4C[C@H](OC(=O)[C@H](N)CC(=O)O)CC[C@]4(C)[C@H]3CC[C@]12C`, in assay [1], the pIC50 is 5.22.

With `CC(C)[C@H](N)C(=O)NCC(=O)OO[C@H]1C[C@H]2[C@@H]([C@H](OC(=O)CNC(=O)[C@@H](N)C(C)C)C[C@@H]3C[C@H](OC(=O)CNC(=O)[C@@H](N)C(C)C)CC[C@@]32C)[C@@H]2CC[C@H]([C@H](C)CCC(=O)OCc3ccccc3)[C@@]12C`, the MIC against Escherichia coli is 8 µM (≈ 7.87 µg/mL); in the assay with Klebsiella pneumoniae, 16 µM (≈ 15.7 µg/mL); with Acinetobacter baumannii, 16 µM (≈ 15.7 µg/mL).

For `Cc1ccc(NC(=O)[C@H](C)NC(=O)CC[C@@H](C)[C@H]2CC[C@H]3[C@@H]4[C@H](O)C[C@@H]5C[C@H](O)CC[C@]5(C)[C@H]4C[C@H](O)[C@]23C)cc1`, the values for the GI50 (in assay [7]; in the assay with MDA-MB-231) were 1620 nM and 4520 nM, respectively.

As for `CCCCCCOC(=O)CC[C@@H](C)[C@H]1CC[C@H]2[C@@H]3[C@H](OC(=O)CN)C[C@@H]4C[C@H](OC(=O)CN)CC[C@]4(C)[C@H]3C[C@H](OC(=O)CN)[C@]12C`, the MIC99 with Escherichia coli, against Klebsiella pneumoniae, against Shigella flexneri, against Pseudomonas aeruginosa, in the assay on Acinetobacter baumannii and in the assay on Salmonella typhimurium was 4 µM (≈ 2.66 µg/mL) in each case. For the same compound, the MIC against Streptococcus oralis, with Staphylococcus aureus [13], against Bacillus subtilis and against Streptococcus pneumoniae was 4 µM (≈ 2.66 µg/mL) in each case.

Take `COc1cccc2c1C(=O)c1c(O)c3c(c(O)c1C2=O)C[C@@](O)(C(=O)CO)C[C@@H]3O[C@H]1C[C@H](N)[C@H](O)[C@H](C)O1` [DOXORUBICIN]: the GI50 in assay [7] was determined as 2600 nM; in the assay with MDA-MB-231, 1000 nM.

For `Cc1c(NC(=O)[C@H](C)NC(=O)CC[C@@H](C)[C@H]2CC[C@H]3[C@@H]4[C@H](O)C[C@@H]5C[C@H](O)CC[C@]5(C)[C@H]4C[C@H](O)[C@]23C)c(=O)n(-c2ccccc2)n1C`, the GI50 in [7] is 2490 nM.

Consider `C[C@]12C[C@H](O)[C@@H](NC(=O)CN)C[C@H]1CC[C@@H]1[C@@H]2CC[C@]2(C)C(=O)CC[C@@H]12`, for which the values for the Activity in the assay on Rattus norvegicus [3] and in the assay on Rattus norvegicus [5] were 11% and 172, respectively.

On Integrin alpha-M/beta-2, `CO[C@H]1CC[C@@]2(C)[C@@H](CC[C@H]3[C@@H]2CC[C@@]2(C)[C@H]3C[C@H](C(=O)N[C@@H](CCCNC(=N)N)C(=O)NCC(=O)N[C@@H](CC(=O)O)C(N)=O)O[C@]23CCCO3)C1` showed a pIC50 of 5.19.

The compound `COC(=O)CCCN[C@@H]1CC[C@@]2(C)[C@H](C1)C[C@@H](NCCCC(=O)OC)[C@@H]1[C@@H]2CC[C@]2(C)[C@@H]([C@H](C)CCCC(C)C)CC[C@@H]12` came in with an MIC in the assay with Staphylococcus aureus [14] of 2 µg/mL (≈ 3.32 µM).

Regarding `C=C(C(=O)N[C@H](C(=O)O)c1ccc(OC)cc1)C(C)CC[C@@H](C)[C@H]1CCC2=C3[C@H](OC)C[C@H]4[C@H](C)[C@@H](OS(=O)(=O)O)CC[C@]4(C)[C@H]3CC[C@@]21C` (stereo not given in full), the zone of inhibition at 100 µg/disc in the assay on Candida albicans [15] stood at 9.8 mm. Moreover, the zone of inhibition at 30 µg/disc in the assay on Cladosporium cucumerinum [9] was found to be 10.1 mm. The zone of inhibition at 60 µg/disc in the assay on Cladosporium cucumerinum [10] is 8 mm.

For the compound `CC[C@H](C)[C@H](NC(=O)CC[C@@H](C)[C@H]1CC[C@H]2[C@@H]3[C@H](O)C[C@@H]4C[C@H](O)CC[C@]4(C)[C@H]3C[C@H](O)[C@]12C)C(=O)Nc1nc2ccccc2s1`, the GI50 with MDA-MB-231 came to 1410 nM.

`CO[C@H]1CC[C@@]2(C)[C@@H](CC[C@H]3[C@@H]2CC[C@@]2(C)[C@H]3C[C@H](C(=O)N[C@@H](CCCNC(=N)N)C(=O)NCC(=O)N[C@@H](CC(=O)O)C(=O)NCc3ccccc3)O[C@]23CCCO3)C1` gave a pIC50 against Integrin alpha-M/beta-2 of 4.96.
